Laboratory results reported in PubChem BioAssay (NCI).
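Test compounds were applied to cells in 96-well plates for 48 hours at 5 doses. GI50 is the concentration that inhibits growth by half. At the TGI there is no net growth.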

Key:
Assay in all cases: growth of human tumour cells (NCI), 48 h
[1] = test system: ACHN renal
[2] = test system: COLO 205 colon
[3] = test system: HCT-15 colon
[4] = test system: IGROV1 ovarian
[5] = test system: M14 melanoma
[6] = test system: MALME-3M melanoma
[7] = test system: SK-MEL-5 melanoma
[8] = test system: SK-OV-3 ovarian
[9] = test system: TK-10 renal
[10] = test system: U251 CNS

SMILES | GI50 [1] [µM] | TGI [1] [µM] | GI50 [2] [µM] | TGI [2] [µM] | GI50 [3] [µM] | TGI [3] [µM] | GI50 [4] [µM] | TGI [4] [µM] | GI50 [5] [µM] | TGI [5] [µM] | GI50 [6] [µM] | TGI [6] [µM] | GI50 [7] [µM] | TGI [7] [µM] | GI50 [8] [µM] | TGI [8] [µM] | GI50 [9] [µM] | TGI [9] [µM] | GI50 [10] [µM] | TGI [10] [µM]
COc1cc2c(cc1C)NC(=O)/C2=C\c1cccc(Oc2ccccc2)c1 | 17.3 | 31 | 16.6 | 33.5 | 13.3 | 26.2 | 14.5 | 29.4 | 16.6 | 31 | 26.1 | 44.6 | 11.6 | 23.8 | 22.3 | 40.9 | 23.3 | 50.6 | 12.4 | 24.9
CC(=O)c1ccc(NC(=O)C(=O)Nn2c(=S)[nH]c3ccccc3c2=O)cc1 | – | > 100 | – | > 100 | – | > 100 | – | > 100 | – | > 100 | – | > 100 | – | > 100 | – | > 100 | – | > 100 | – | > 100
O=[N+]([O-])c1cccc(C2ON2C2CCCCC2)c1 (stereo not given) | – | 32 | – | 32.6 | – | 30.7 | – | 44.8 | – | 32.4 | – | 54.6 | – | 33 | – | > 100 | – | 77 | – | 14
CCOC(=O)C(=Cc1ccc(Oc2ccccc2)cc1)C(=O)OCC | – | 18.3 | – | 11.4 | – | 6.35 | – | 20.8 | – | 9.6 | – | 7.4 | – | 3.9 | – | 20.5 | – | 19.4 | – | 9.25
Nc1nc(-c2ccc(F)cc2)c(-c2ccc3ncccc3n2)s1 | 8.33 | > 25 | > 25 | > 25 | 14.1 | > 25 | 5.44 | > 20.9 | > 25 | > 25 | 19.6 | > 25 | 13.1 | > 25 | 6.82 | > 25 | 5.62 | 17.1 | > 24.1 | > 25
Cc1occc1C(=S)Nc1ccc(Cl)c(C(=O)OC(C)C2CC2)c1 (stereo not given) | – | 42 | – | 51.3 | – | 41.2 | – | 35.2 | – | 53.4 | – | 36.4 | – | 31.8 | – | 50.5 | – | > 100 | – | 70.5
CCc1cccc(C(C)C)c1N1C(=O)C(=O)C(c2nc3ccccc3s2)C(=O)C1=O | – | > 50 | – | > 50 | – | > 50 | – | > 50 | – | > 50 | – | > 45.3 | – | > 50 | – | > 50 | – | > 50 | – | > 50
CN(C)c1ccc(Nc2cc(-c3cccc(OC(F)(F)F)c3)nc3ccc(N4CCCC4)cc23)cc1 | 2.05 | 4.36 | 2.56 | 9.02 | 1.75 | 3.53 | 1.56 | 3.06 | 1.7 | 3.32 | 1.66 | 3.11 | 1.82 | 3.3 | 13.1 | 25.7 | 1.84 | 3.3 | 1.74 | 3.16
COc1cc(OC)c(C2CC=Cc3c(OC)cc(OC)c(OC)c32)cc1OC (stereo not given) | – | > 100 | – | > 100 | – | > 100 | – | > 100 | – | > 100 | – | > 100 | – | > 100 | – | > 100 | – | > 100 | – | > 100
COc1ccc(OC)c(/C=C(/C)[N+](=O)[O-])c1 | 1.77 | 3.29 | 1.92 | 3.63 | 1.74 | 3.68 | 2.97 | 8.39 | 2.14 | 4.24 | 1.81 | 3.61 | 3.47 | 13 | 6.41 | 19 | 1.96 | 3.47 | 1.68 | 3.18
O=C1c2ccccc2C(=O)c2c1ccc(C1C(=O)c3ccccc3C1=O)c2-c1c(C2C(=O)c3ccccc3C2=O)ccc2c1C(=O)c1ccccc1C2=O | – | > 100 | – | > 100 | – | > 100 | – | > 100 | – | > 100 | – | > 100 | – | > 100 | – | > 100 | – | > 100 | – | > 100
COC(=O)C1=C(C)NC(C)=C(C(=O)OC)C1/C=C(Cl)/C=C/c1ccccc1 | 24.6 | 76 | 30.9 | 75.6 | 29.7 | > 100 | 18.2 | 43.8 | 16.2 | 30.5 | 19.8 | 46 | 17.2 | 33.4 | 28.2 | > 100 | 22.7 | 65.9 | 23 | 58.5
O=C(O)c1cccc(N=Nc2c(S(=O)(=O)O)ccc3c2C(=O)c2ccccc2C3=O)c1O | – | > 100 | – | > 100 | – | > 100 | – | > 100 | – | > 100 | – | > 100 | – | > 100 | – | > 100 | – | > 100 | – | > 100
O=C(/C=C/c1cc([N+](=O)[O-])ccc1Cl)c1ccccc1 | 16.4 | 31.9 | 23 | 48.2 | 8 | 88.2 | 4.6 | 31.7 | 10.2 | 22.5 | 19.4 | 44.7 | 15.4 | 29.3 | 39 | > 100 | 38.2 | > 100 | 2.56 | 8.04
Cc1c(COc2cc(OCc3cccc(C#N)c3)c(CN3C[C@H](O)C[C@@H]3C(=O)O)cc2Cl)cccc1-c1ccc2c(c1)OCCO2 | 17.2 | 31 | 20.7 | 39.7 | 13.7 | 26.7 | 16.3 | 32.5 | 13.2 | 27.1 | 14.7 | 28.9 | 2.14 | 5.13 | 19.4 | 37.7 | 20.2 | 41.5 | 17.3 | 47.3
O=C1C2C3C=CC(C2C(=O)N1COP(=O)(O)O)C1C2C(=O)N(COP(=O)(O)O)C(=O)C2C31 (stereo not given) | – | > 100 | – | > 65 | – | > 57.9 | – | > 100 | – | > 100 | – | > 100 | – | > 100 | – | > 100 | – | > 100 | – | > 100
